Measured values published in patent US20230085307A1, “PYRIDAZINONE COMPOUND AND HERBICIDE” (NISSAN CHEMICAL CORPORATION, priority 2019, published 2023).

Columns and labels:
barnyard grass [1] = assay: Test Example 4: herbicidal effect by soil treatment (Table 19, symbol H); assay type: in vivo, barnyard grass (Echinochloa crus-galli); conditions: amount of applied herbicide 320 g/ha
Summary of the method: (§1)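 Three weeks of greenhouse growth at 25° C. to 30° C. followed a uniform surface spray of water-diluted emulsion at a predetermined herbicide amount. Seeds had been sown beforehand under about 1.5 cm of sterilized diluvial soil. Grading followed criteria set out in an earlier test.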

southern crabgrass [2] = assay: Test Example 4: herbicidal effect by soil treatment (Table 19, symbol F); assay type: in vivo, southern crabgrass (Digitaria ciliaris); conditions: amount of applied herbicide 320 g/ha
Summary of the method: as §1

Japanese bulrush [3] = assay: Test Example 2: herbicidal activity, application during weed generation under submerged conditions (Table 17, symbol B); assay type: in vivo, Japanese bulrush (Schoenoplectus juncoides); conditions: for herbicidal effect grade, B: Japanese bulrush: application during weed generation under submerged conditions, amount of applied herbicide 320 g/ha
Summary of the method: (§2)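 Steps: fill Wagner pots with alluvial soil; add water to give 4 cm depth; sow the species mixed; grow under glass at 25–30° C.; at 1–2 leaves apply water-diluted emulsion formulation to the water surface at a fixed herbicide amount; score after 3 weeks.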

blackgrass [4] = assay: Test Example 5: herbicidal effect by foliage application, plastic box (Table 20, symbol J); assay type: in vivo, blackgrass (Alopecurus myosuroides); conditions: foliage application, 320 g/ha; for J (blackgrass) herbicidal effect grade: evaluated 3 weeks after application; for J: blackgrass, herbicidal effect grade: three weeks after application
Summary of the method: (§3)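 Plants sown in sterilized diluvial soil and grown 14 days in a greenhouse at 25° C to 30° C, then sprayed on the foliage with the compound's emulsion diluted in water to a predetermined herbicide amount. Injury to weeds and crops scored three weeks after application on a visual rating scale.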

persian speedwell = assay: Test Example 5: herbicidal effect by foliage application, plastic box (Table 20, symbol R); assay type: in vivo, Persian speedwell (Veronica persica); conditions: foliage application, 320 g/ha; for R (persian speedwell) herbicidal effect grade: evaluated 3 weeks after application; for R: persian speedwell, herbicidal effect grade: three weeks after application
Summary of the method: as §3

oval-leafed pondweed = assay: Test Example 1: herbicidal activity, application before weed generation under submerged conditions (Table 16, symbol C); assay type: in vivo, oval-leafed pondweed (Monochoria vaginalis); conditions: amount of applied herbicide 320 g/ha
Summary of the method: (§4)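 Emulsion formulation, water-diluted to set dose, was put onto the flooded surface (4 cm depth, alluvial soil) the same day weeds were sown and 2.5-leaf rice transplanted. After 3 weeks at 25-30 °C under glass, each species was rated 0 (≤5% kill) to 5 (≥90% kill).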

Japanese bulrush [5] = assay: Test Example 1: herbicidal activity, application before weed generation under submerged conditions (Table 16, symbol B); assay type: in vivo, Japanese bulrush (Schoenoplectus juncoides); conditions: amount of applied herbicide 320 g/ha
Summary of the method: as §4

redroot pigweed [6] = assay: Test Example 5: herbicidal effect by foliage application, plastic box (Table 20, symbol N); assay type: in vivo, redroot pigweed (Amaranthus retroflexus); conditions: foliage application, 320 g/ha; for N (redroot pigweed) herbicidal effect grade: evaluated 3 weeks after application; for N: redroot pigweed, herbicidal effect grade: three weeks after application
Summary of the method: as §3

lambsquarters = assay: Test Example 5: herbicidal effect by foliage application, plastic box (Table 20, symbol O); assay type: in vivo, lambsquarters (Chenopodium album); conditions: foliage application, 320 g/ha; for O (lambsquarters) herbicidal effect grade: evaluated 3 weeks after application; for O: lambsquarters, herbicidal effect grade: three weeks after application
Summary of the method: as §3

late watergrass = assay: Test Example 2: herbicidal activity, application during weed generation under submerged conditions (Table 17, symbol A); assay type: in vivo, late watergrass (Echinochloa oryzicola); conditions: for herbicidal effect grade, A: late watergrass: application during weed generation under submerged conditions, amount of applied herbicide 320 g/ha; for herbicidal effect rating, A: late watergrass: AAH 320 g/ha, application during weed generation, submerged conditions
Summary of the method: as §2

green foxtail = assay: Test Example 5: herbicidal effect by foliage application, plastic box (Table 20, symbol G); assay type: in vivo, green foxtail (Setaria viridis); conditions: foliage application, 320 g/ha; for G (green foxtail) herbicidal effect grade: evaluated 3 weeks after application; for G: green foxtail, herbicidal effect grade: three weeks after application
Summary of the method: as §3

redroot pigweed [7] = assay: Test Example 4: herbicidal effect by soil treatment (Table 19, symbol N); assay type: in vivo, redroot pigweed (Amaranthus retroflexus); conditions: amount of applied herbicide 320 g/ha
Summary of the method: as §1

chickweed = assay: Test Example 4: herbicidal effect by soil treatment (Table 19, symbol P); assay type: in vivo, common chickweed (Stellaria media); conditions: amount of applied herbicide 320 g/ha
Summary of the method: as §1

barnyard grass [8] = assay: Test Example 3: herbicidal effect by foliage application, Wagner pot (Table 18, symbol H); assay type: in vivo, barnyard grass (Echinochloa crus-galli)
Summary of the method: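 Plants were sown in alluvial soil held under 0.1–0.5 cm standing water and grown 14 days in a greenhouse at 25–30 °C. An emulsifiable formulation, water-diluted to the set dose, was then sprayed onto the foliage, and effects were scored three weeks later using previously defined criteria.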

wild oat = assay: Test Example 5: herbicidal effect by foliage application, plastic box (Table 20, symbol I); assay type: in vivo, wild oat (Avena fatua); conditions: foliage application, 320 g/ha; for I (wild oat) herbicidal effect grade: evaluated 3 weeks after application; for I: wild oat, herbicidal effect grade: three weeks after application
Summary of the method: as §3

southern crabgrass [9] = assay: Test Example 5: herbicidal effect by foliage application, plastic box (Table 20, symbol F); assay type: in vivo, southern crabgrass (Digitaria ciliaris); conditions: foliage application, 320 g/ha; for F (southern crabgrass) herbicidal effect grade: evaluated 3 weeks after application; for F: southern crabgrass, herbicidal effect grade: three weeks after application
Summary of the method: as §3

blackgrass [10] = assay: Test Example 4: herbicidal effect by soil treatment (Table 19, symbol J); assay type: in vivo, blackgrass (Alopecurus myosuroides); conditions: amount of applied herbicide 320 g/ha
Summary of the method: as §1

[11] = amount of applied herbicide 320 g/ha

Row | SMILES | H: barnyard grass, herbicidal effect grade (barnyard grass [1]) | F: southern crabgrass, herbicidal effect grade (southern crabgrass [2]) | herbicidal effect grade, B: Japanese bulrush (Japanese bulrush [3]) | J (blackgrass) herbicidal effect grade (blackgrass [4]) | R (persian speedwell) herbicidal effect grade (persian speedwell) | Herbicidal effect, C: oval-leafed pondweed (oval-leafed pondweed) | Herbicidal effect, B: Japanese bulrush (Japanese bulrush [5]) | N (redroot pigweed) herbicidal effect grade (redroot pigweed [6]) | O (lambsquarters) herbicidal effect grade (lambsquarters) | herbicidal effect grade, A: late watergrass (late watergrass) | G (green foxtail) herbicidal effect grade (green foxtail) | N: redroot pigweed, herbicidal effect grade (redroot pigweed [7]) | P: chickweed, herbicidal effect grade (chickweed) | Herbicidal effect on H (barnyard grass), foliage application (barnyard grass [8]; [11]) | I (wild oat) herbicidal effect grade (wild oat) | F (southern crabgrass) herbicidal effect grade (southern crabgrass [9]) | J: blackgrass, herbicidal effect grade (blackgrass [4]) | R: persian speedwell, herbicidal effect grade (persian speedwell) | N: redroot pigweed, herbicidal effect grade (redroot pigweed [6]) | O: lambsquarters, herbicidal effect grade (lambsquarters) | other results
1 | Cc1nn(C)c(=O)c(-c2c(-c3ccc(Cl)cc3)sc3cccc(F)c23)c1O [11-001] | 0 (Herbicidal rate of 5% or less (almost no effect)) | 0 (Herbicidal rate of 5% or less (almost no effect)) | 3 (Herbicidal rate of 40% or more and less than 70%) | 0 (Herbicidal rate of 5% or less (almost no effect)) | 5 (Herbicidal rate of 90% or more (almost completely withered)) | 5 (Herbicidal rate of 90% or more (almost completely withered)) | 5 (Herbicidal rate of 90% or more (almost completely withered)) | 5 (Herbicidal rate of 90% or more (almost completely withered)) | 5 (Herbicidal rate of 90% or more (almost completely withered)) | 2 (Herbicidal rate of 20% or more and less than 40%) | 0 (Herbicidal rate of 5% or less (almost no effect)) | 5 (Herbicidal rate of 90% or more (almost completely withered)) | 4 (Herbicidal rate of 70% or more and less than 90%) | 3 (Herbicidal rate of 40% or more and less than 70%) | 0 (Herbicidal rate of 5% or less (almost no effect)) | 0 (Herbicidal rate of 5% or less (almost no effect)) |  |  |  |  | 
2 | CSc1ccc(-c2oc3ccc(C)cc3c2-c2c(O)c(C)nn(C)c2=O)cc1 [9-055] | 3 (Herbicidal rate of 40% or more and less than 70%) | 0 (Herbicidal rate of 5% or less (almost no effect)) | 3 (Herbicidal rate of 40% or more and less than 70%) | 5 (Herbicidal rate of 90% or more (almost completely withered)) | 5 (Herbicidal rate of 90% or more (almost completely withered)) | 4 (Herbicidal rate of 70% or more and less than 90%) | 4 (Herbicidal rate of 70% or more and less than 90%) | 5 (Herbicidal rate of 90% or more (almost completely withered)) | 5 (Herbicidal rate of 90% or more (almost completely withered)) | 4 (Herbicidal rate of 70% or more and less than 90%) | 3 (Herbicidal rate of 40% or more and less than 70%) | 5 (Herbicidal rate of 90% or more (almost completely withered)) | 5 (Herbicidal rate of 90% or more (almost completely withered)) | 5 (Herbicidal rate of 90% or more (almost completely withered)) | 0 (Herbicidal rate of 5% or less (almost no effect)) | 4 (Herbicidal rate of 70% or more and less than 90%) |  |  |  |  | 
3 | CCCC(=O)Oc1c(C)nn(C)c(=O)c1-c1c(-c2ccc(F)cc2OCC)sc2cc(Cl)ccc12 [3-046] | 0 (Herbicidal rate of 5% or less (almost no effect)) | 0 (Herbicidal rate of 5% or less (almost no effect)) |  |  |  | 0 (Herbicidal rate of 5% or less (almost no effect)) | 0 (Herbicidal rate of 5% or less (almost no effect)) |  |  |  |  | 5 (Herbicidal rate of 90% or more (almost completely withered)) | 4 (Herbicidal rate of 70% or more and less than 90%) |  |  |  | 4 (Herbicidal rate of 70% or more and less than 90%) | 3 (Herbicidal rate of 40% or more and less than 70%) | 4 (Herbicidal rate of 70% or more and less than 90%) | 3 (Herbicidal rate of 40% or more and less than 70%) | herbicidal effect rating, B: Japanese bulrush (Japanese bulrush [3]; AAH 320 g/ha, application during weed generation, submerged conditions): 2 (Herbicidal rate of 20% or more and less than 40%); herbicidal effect rating, A: late watergrass (late watergrass): 0 (Herbicidal rate of 5% or less (almost no effect)); G: green foxtail, herbicidal effect grade (green foxtail): 5 (Herbicidal rate of 90% or more (almost completely withered)); herbicidal effect on barnyard grass (H) (barnyard grass [8]; 320 g/ha): 5 (Herbicidal rate of 90% or more (almost completely withered)); I: wild oat, herbicidal effect grade (wild oat): 5 (Herbicidal rate of 90% or more (almost completely withered)); F: southern crabgrass, herbicidal effect grade (southern crabgrass [9]): 5 (Herbicidal rate of 90% or more (almost completely withered))
4 | CCCC(=O)Oc1c(C)nn(C)c(=O)c1-c1c(-c2ccc(F)cc2OC)sc2cc(F)ccc12 [3-010] |  |  |  |  |  | 3 (Herbicidal rate of 40% or more and less than 70%) | 4 (Herbicidal rate of 70% or more and less than 90%) |  |  |  |  |  |  |  |  |  | 5 (Herbicidal rate of 90% or more (almost completely withered)) | 5 (Herbicidal rate of 90% or more (almost completely withered)) | 5 (Herbicidal rate of 90% or more (almost completely withered)) | 5 (Herbicidal rate of 90% or more (almost completely withered)) | herbicidal effect, H: barnyard grass (barnyard grass [1]): 3 (Herbicidal rate of 40% or more and less than 70%); herbicidal effect, F: southern crabgrass (southern crabgrass [2]): 3 (Herbicidal rate of 40% or more and less than 70%); herbicidal effect, J: blackgrass (blackgrass [10]): 4 (Herbicidal rate of 70% or more and less than 90%); herbicidal effect rating, A: late watergrass (late watergrass): 3 (Herbicidal rate of 40% or more and less than 70%); G: green foxtail, herbicidal effect grade (green foxtail): 5 (Herbicidal rate of 90% or more (almost completely withered)); herbicidal effect, N: redroot pigweed (redroot pigweed [7]): 5 (Herbicidal rate of 90% or more (almost completely withered)); herbicidal effect, P: chickweed (chickweed): 4 (Herbicidal rate of 70% or more and less than 90%); herbicidal effect on H: barnyard grass (barnyard grass [8]; [11]): 5 (Herbicidal rate of 90% or more (almost completely withered)); I: wild oat, herbicidal effect grade (wild oat): 5 (Herbicidal rate of 90% or more (almost completely withered)); F: southern crabgrass, herbicidal effect grade (southern crabgrass [9]): 3 (Herbicidal rate of 40% or more and less than 70%)
